Data reported in ChEMBL document CHEMBL5444388, “Affinity Phenotypic Cellular Literature for EUbOPEN Chemogenomic Library” (2024).

Legend:
Format in all cases: functional, cell-based
Set-up in all cases: recommended concentration 100 nM
[1] = target: Centromere-associated protein E (Homo sapiens) (UniProt Q02224); assay: Affinity Phenotypic Cellular interaction: (Cell-growth inhibition assays (growth inhibitory effect colon cancer cell line RD)) EUB0000734a CENPE; conditions: Affinity Phenotypic Cellular Source Knowledge https://pubmed.ncbi.nlm.nih.gov/20167803/
Sequence of Centromere-associated protein E (Homo sapiens) (Q02224 whole entry): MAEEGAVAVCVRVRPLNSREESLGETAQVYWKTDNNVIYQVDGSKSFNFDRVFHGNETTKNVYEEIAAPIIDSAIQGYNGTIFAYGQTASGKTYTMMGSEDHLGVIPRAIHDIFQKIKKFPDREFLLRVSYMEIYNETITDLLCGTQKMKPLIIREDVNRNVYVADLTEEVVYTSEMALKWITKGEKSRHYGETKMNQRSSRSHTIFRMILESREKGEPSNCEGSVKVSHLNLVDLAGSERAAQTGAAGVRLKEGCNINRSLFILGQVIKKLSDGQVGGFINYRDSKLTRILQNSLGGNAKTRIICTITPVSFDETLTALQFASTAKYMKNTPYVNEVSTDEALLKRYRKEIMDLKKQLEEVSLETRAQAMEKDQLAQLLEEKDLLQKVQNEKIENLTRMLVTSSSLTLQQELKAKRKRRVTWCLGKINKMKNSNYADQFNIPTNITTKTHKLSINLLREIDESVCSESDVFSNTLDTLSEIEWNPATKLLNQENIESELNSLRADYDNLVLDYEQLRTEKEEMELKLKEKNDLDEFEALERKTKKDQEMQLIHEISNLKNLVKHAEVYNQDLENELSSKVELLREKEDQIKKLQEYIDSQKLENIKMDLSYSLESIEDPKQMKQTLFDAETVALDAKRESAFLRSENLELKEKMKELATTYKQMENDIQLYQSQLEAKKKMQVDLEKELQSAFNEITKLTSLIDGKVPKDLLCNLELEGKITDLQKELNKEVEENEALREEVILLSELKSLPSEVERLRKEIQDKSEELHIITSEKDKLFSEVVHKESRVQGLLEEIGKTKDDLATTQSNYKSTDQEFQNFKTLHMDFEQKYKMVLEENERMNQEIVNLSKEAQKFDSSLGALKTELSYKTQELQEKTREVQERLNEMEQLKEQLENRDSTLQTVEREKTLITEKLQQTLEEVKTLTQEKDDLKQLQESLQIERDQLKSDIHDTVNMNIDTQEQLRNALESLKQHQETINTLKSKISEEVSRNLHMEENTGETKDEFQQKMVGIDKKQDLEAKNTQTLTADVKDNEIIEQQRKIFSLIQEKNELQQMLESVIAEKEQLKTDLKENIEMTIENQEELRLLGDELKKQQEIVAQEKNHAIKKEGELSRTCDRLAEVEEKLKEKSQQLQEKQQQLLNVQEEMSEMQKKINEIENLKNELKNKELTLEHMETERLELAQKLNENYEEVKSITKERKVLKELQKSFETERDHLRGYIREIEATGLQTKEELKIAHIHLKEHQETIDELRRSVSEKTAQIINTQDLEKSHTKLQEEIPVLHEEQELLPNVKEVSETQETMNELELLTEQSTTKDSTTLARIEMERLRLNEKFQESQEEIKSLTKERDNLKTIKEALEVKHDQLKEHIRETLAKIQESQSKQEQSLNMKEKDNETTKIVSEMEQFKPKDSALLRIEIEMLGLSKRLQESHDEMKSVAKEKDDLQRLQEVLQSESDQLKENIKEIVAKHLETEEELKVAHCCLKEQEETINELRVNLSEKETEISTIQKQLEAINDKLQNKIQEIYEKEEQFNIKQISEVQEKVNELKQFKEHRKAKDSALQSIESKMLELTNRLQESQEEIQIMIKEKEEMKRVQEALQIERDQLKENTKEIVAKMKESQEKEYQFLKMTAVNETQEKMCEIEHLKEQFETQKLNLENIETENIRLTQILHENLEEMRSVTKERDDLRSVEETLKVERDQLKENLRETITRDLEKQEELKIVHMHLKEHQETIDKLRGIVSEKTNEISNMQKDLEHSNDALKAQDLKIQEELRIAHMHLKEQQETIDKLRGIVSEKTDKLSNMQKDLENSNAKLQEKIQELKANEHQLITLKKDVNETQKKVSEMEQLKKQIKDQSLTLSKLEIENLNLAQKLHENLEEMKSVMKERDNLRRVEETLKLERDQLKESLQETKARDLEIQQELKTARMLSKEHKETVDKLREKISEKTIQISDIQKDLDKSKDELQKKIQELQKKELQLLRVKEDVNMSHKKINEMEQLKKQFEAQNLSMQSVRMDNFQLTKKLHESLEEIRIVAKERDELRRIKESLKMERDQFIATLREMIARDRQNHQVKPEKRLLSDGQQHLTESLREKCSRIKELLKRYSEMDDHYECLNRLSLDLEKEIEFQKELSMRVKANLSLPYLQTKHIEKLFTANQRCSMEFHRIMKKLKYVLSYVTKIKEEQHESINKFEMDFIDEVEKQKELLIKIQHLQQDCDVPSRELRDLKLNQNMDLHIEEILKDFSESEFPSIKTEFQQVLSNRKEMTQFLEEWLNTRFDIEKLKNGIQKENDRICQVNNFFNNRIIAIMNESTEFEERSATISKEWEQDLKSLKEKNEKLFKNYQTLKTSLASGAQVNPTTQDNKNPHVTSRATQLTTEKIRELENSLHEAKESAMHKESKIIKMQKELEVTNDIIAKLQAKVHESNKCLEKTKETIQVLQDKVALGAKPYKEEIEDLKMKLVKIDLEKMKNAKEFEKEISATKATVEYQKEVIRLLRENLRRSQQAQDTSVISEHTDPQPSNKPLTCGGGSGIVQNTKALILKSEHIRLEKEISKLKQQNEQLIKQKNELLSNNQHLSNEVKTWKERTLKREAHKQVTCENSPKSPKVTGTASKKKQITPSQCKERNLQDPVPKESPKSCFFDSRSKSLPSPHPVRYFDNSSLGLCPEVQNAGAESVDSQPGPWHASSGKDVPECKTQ

[2] = target: Centromere-associated protein E (Homo sapiens) (UniProt Q02224); assay: Affinity Phenotypic Cellular interaction: (Cell-growth inhibition assays (growth inhibitory effect colon cancer cell line CCF-STTG1)) EUB0000734a CENPE; conditions: Affinity Phenotypic Cellular Source Knowledge https://pubmed.ncbi.nlm.nih.gov/20167803/
[3] = target: Centromere-associated protein E (Homo sapiens) (UniProt Q02224); assay: Affinity Phenotypic Cellular interaction: (Cell-growth inhibition assays (growth inhibitory effect colon cancer cell line DoTc2-4510)) EUB0000734a CENPE; conditions: Affinity Phenotypic Cellular Source Knowledge https://pubmed.ncbi.nlm.nih.gov/20167803/
[4] = target: Centromere-associated protein E (Homo sapiens) (UniProt Q02224); assay: Affinity Phenotypic Cellular interaction: (Cell-growth inhibition assays (growth inhibitory effect colon cancer cell line NCI/ADR-RES)) EUB0000734a CENPE; conditions: Affinity Phenotypic Cellular Source Knowledge https://pubmed.ncbi.nlm.nih.gov/20167803/
[5] = target: Centromere-associated protein E (Homo sapiens) (UniProt Q02224); assay: Affinity Phenotypic Cellular interaction: (Cell-growth inhibition assays (growth inhibitory effect colon cancer cell line BHT-101)) EUB0000734a CENPE; conditions: Affinity Phenotypic Cellular Source Knowledge https://pubmed.ncbi.nlm.nih.gov/20167803/
[6] = target: Centromere-associated protein E (Homo sapiens) (UniProt Q02224); assay: Affinity Phenotypic Cellular interaction: (Cell-growth inhibition assays (growth inhibitory effect colon cancer cell line BC-3)) EUB0000734a CENPE; conditions: Affinity Phenotypic Cellular Source Knowledge https://pubmed.ncbi.nlm.nih.gov/20167803/
[7] = target: Centromere-associated protein E (Homo sapiens) (UniProt Q02224); assay: Affinity Phenotypic Cellular interaction: (Cell-growth inhibition assays (growth inhibitory effect colon cancer cell line T24)) EUB0000734a CENPE; conditions: T-24, Affinity Phenotypic Cellular Source Knowledge https://pubmed.ncbi.nlm.nih.gov/20167803/
[8] = target: Centromere-associated protein E (Homo sapiens) (UniProt Q02224); assay: Affinity Phenotypic Cellular interaction: (Cell-growth inhibition assays (growth inhibitory effect colon cancer cell line U251)) EUB0000734a CENPE; conditions: U-251, Affinity Phenotypic Cellular Source Knowledge https://pubmed.ncbi.nlm.nih.gov/20167803/
[9] = target: Centromere-associated protein E (Homo sapiens) (UniProt Q02224); assay: Affinity Phenotypic Cellular interaction: (Cell-growth inhibition assays (growth inhibitory effect colon cancer cell line C3A)) EUB0000734a CENPE; conditions: Affinity Phenotypic Cellular Source Knowledge https://pubmed.ncbi.nlm.nih.gov/20167803/
[10] = target: Centromere-associated protein E (Homo sapiens) (UniProt Q02224); assay: Affinity Phenotypic Cellular interaction: (Cell-growth inhibition assays (growth inhibitory effect colon cancer cell line SK-NEP-1)) EUB0000734a CENPE; conditions: Affinity Phenotypic Cellular Source Knowledge https://pubmed.ncbi.nlm.nih.gov/20167803/
[11] = target: Centromere-associated protein E (Homo sapiens) (UniProt Q02224); assay: Affinity Phenotypic Cellular interaction: (Cell-growth inhibition assays (growth inhibitory effect colon cancer cell line COLO205)) EUB0000734a CENPE; conditions: COLO 205, Affinity Phenotypic Cellular Source Knowledge https://pubmed.ncbi.nlm.nih.gov/20167803/
[12] = target: Centromere-associated protein E (Homo sapiens) (UniProt Q02224); assay: Affinity Phenotypic Cellular interaction: (Cell-growth inhibition assays (growth inhibitory effect colon cancer cell line OV-90)) EUB0000734a CENPE; conditions: Affinity Phenotypic Cellular Source Knowledge https://pubmed.ncbi.nlm.nih.gov/20167803/
[13] = target: Centromere-associated protein E (Homo sapiens) (UniProt Q02224); assay: Affinity Phenotypic Cellular interaction: (Cell-growth inhibition assays (growth inhibitory effect colon cancer cell line CAL-62)) EUB0000734a CENPE; conditions: Affinity Phenotypic Cellular Source Knowledge https://pubmed.ncbi.nlm.nih.gov/20167803/
[14] = target: Centromere-associated protein E (Homo sapiens) (UniProt Q02224); assay: Affinity Phenotypic Cellular interaction: (Cell-growth inhibition assays (growth inhibitory effect colon cancer cell line SW1463)) EUB0000734a CENPE; conditions: Affinity Phenotypic Cellular Source Knowledge https://pubmed.ncbi.nlm.nih.gov/20167803/
[15] = target: Centromere-associated protein E (Homo sapiens) (UniProt Q02224); assay: Affinity Phenotypic Cellular interaction: (Cell-growth inhibition assays (growth inhibitory effect colon cancer cell line Caki-2)) EUB0000734a CENPE; conditions: Affinity Phenotypic Cellular Source Knowledge https://pubmed.ncbi.nlm.nih.gov/20167803/
[16] = target: Centromere-associated protein E (Homo sapiens) (UniProt Q02224); assay: Affinity Phenotypic Cellular interaction: (Cell-growth inhibition assays (growth inhibitory effect colon cancer cell line BT-20)) EUB0000734a CENPE; conditions: Affinity Phenotypic Cellular Source Knowledge https://pubmed.ncbi.nlm.nih.gov/20167803/
[17] = target: Centromere-associated protein E (Homo sapiens) (UniProt Q02224); assay: Affinity Phenotypic Cellular interaction: (Cell-growth inhibition assays (growth inhibitory effect colon cancer cell line SW837)) EUB0000734a CENPE; conditions: Affinity Phenotypic Cellular Source Knowledge https://pubmed.ncbi.nlm.nih.gov/20167803/
[18] = target: Centromere-associated protein E (Homo sapiens) (UniProt Q02224); assay: Affinity Phenotypic Cellular interaction: (Cell-growth inhibition assays (growth inhibitory effect colon cancer cell line SF-268)) EUB0000734a CENPE; conditions: Affinity Phenotypic Cellular Source Knowledge https://pubmed.ncbi.nlm.nih.gov/20167803/
[19] = target: Centromere-associated protein E (Homo sapiens) (UniProt Q02224); assay: Affinity Phenotypic Cellular interaction: (Cell-growth inhibition assays (growth inhibitory effect colon cancer cell line Detroit562)) EUB0000734a CENPE; conditions: Detroit 562, Affinity Phenotypic Cellular Source Knowledge https://pubmed.ncbi.nlm.nih.gov/20167803/
[20] = target: Centromere-associated protein E (Homo sapiens) (UniProt Q02224); assay: Affinity Phenotypic Cellular interaction: (Cell-growth inhibition assays (growth inhibitory effect colon cancer cell line SW1990)) EUB0000734a CENPE; conditions: Affinity Phenotypic Cellular Source Knowledge https://pubmed.ncbi.nlm.nih.gov/20167803/
[21] = target: Centromere-associated protein E (Homo sapiens) (UniProt Q02224); assay: Affinity Phenotypic Cellular interaction: (Cell-growth inhibition assays (growth inhibitory effect colon cancer cell line SK-MEL-3)) EUB0000734a CENPE; conditions: SK-MEL3, Affinity Phenotypic Cellular Source Knowledge https://pubmed.ncbi.nlm.nih.gov/20167803/
[22] = target: Centromere-associated protein E (Homo sapiens) (UniProt Q02224); assay: Affinity Phenotypic Cellular interaction: (Cell-growth inhibition assays (growth inhibitory effect colon cancer cell line SF-295)) EUB0000734a CENPE; conditions: Affinity Phenotypic Cellular Source Knowledge https://pubmed.ncbi.nlm.nih.gov/20167803/
[23] = target: Centromere-associated protein E (Homo sapiens) (UniProt Q02224); assay: Affinity Phenotypic Cellular interaction: (Cell-growth inhibition assays (growth inhibitory effect colon cancer cell line SR)) EUB0000734a CENPE; conditions: Affinity Phenotypic Cellular Source Knowledge https://pubmed.ncbi.nlm.nih.gov/20167803/
[24] = target: Centromere-associated protein E (Homo sapiens) (UniProt Q02224); assay: Affinity Phenotypic Cellular interaction: (Cell-growth inhibition assays (growth inhibitory effect colon cancer cell line HCT-8)) EUB0000734a CENPE; conditions: Affinity Phenotypic Cellular Source Knowledge https://pubmed.ncbi.nlm.nih.gov/20167803/
[25] = target: Centromere-associated protein E (Homo sapiens) (UniProt Q02224); assay: Affinity Phenotypic Cellular interaction: (Cell-growth inhibition assays (growth inhibitory effect colon cancer cell line RXF393)) EUB0000734a CENPE; conditions: RXF 393, Affinity Phenotypic Cellular Source Knowledge https://pubmed.ncbi.nlm.nih.gov/20167803/
[26] = target: Centromere-associated protein E (Homo sapiens) (UniProt Q02224); assay: Affinity Phenotypic Cellular interaction: (Cell-growth inhibition assays (growth inhibitory effect colon cancer cell line G-401)) EUB0000734a CENPE; conditions: Affinity Phenotypic Cellular Source Knowledge https://pubmed.ncbi.nlm.nih.gov/20167803/
[27] = target: Centromere-associated protein E (Homo sapiens) (UniProt Q02224); assay: Affinity Phenotypic Cellular interaction: (Cell-growth inhibition assays (growth inhibitory effect colon cancer cell line SW480)) EUB0000734a CENPE; conditions: Affinity Phenotypic Cellular Source Knowledge https://pubmed.ncbi.nlm.nih.gov/20167803/
[28] = target: Centromere-associated protein E (Homo sapiens) (UniProt Q02224); assay: Affinity Phenotypic Cellular interaction: (Cell-growth inhibition assays (growth inhibitory effect breast cancer cell line MT-3)) EUB0000734a CENPE; conditions: Affinity Phenotypic Cellular Source Knowledge https://pubmed.ncbi.nlm.nih.gov/20167803/
[29] = target: Centromere-associated protein E (Homo sapiens) (UniProt Q02224); assay: Affinity Phenotypic Cellular interaction: (Cell-growth inhibition assays (growth inhibitory effect colon cancer cell line OVCAR-5)) EUB0000734a CENPE; conditions: Affinity Phenotypic Cellular Source Knowledge https://pubmed.ncbi.nlm.nih.gov/20167803/
[30] = target: Centromere-associated protein E (Homo sapiens) (UniProt Q02224); assay: Affinity Phenotypic Cellular interaction: (Cell-growth inhibition assays (growth inhibitory effect colon cancer cell line LNCaP)) EUB0000734a CENPE; conditions: Affinity Phenotypic Cellular Source Knowledge https://pubmed.ncbi.nlm.nih.gov/20167803/
[31] = target: Centromere-associated protein E (Homo sapiens) (UniProt Q02224); assay: Affinity Phenotypic Cellular interaction: (Cell-growth inhibition assays (growth inhibitory effect colon cancer cell line SW-954)) EUB0000734a CENPE; conditions: Affinity Phenotypic Cellular Source Knowledge https://pubmed.ncbi.nlm.nih.gov/20167803/
[32] = target: Centromere-associated protein E (Homo sapiens) (UniProt Q02224); assay: Affinity Phenotypic Cellular interaction: (Cell-growth inhibition assays (growth inhibitory effect colon cancer cell line G-402)) EUB0000734a CENPE; conditions: Affinity Phenotypic Cellular Source Knowledge https://pubmed.ncbi.nlm.nih.gov/20167803/
[33] = target: Centromere-associated protein E (Homo sapiens) (UniProt Q02224); assay: Affinity Phenotypic Cellular interaction: (Cell-growth inhibition assays (growth inhibitory effect colon cancer cell line 786-O)) EUB0000734a CENPE; conditions: 786-0, Affinity Phenotypic Cellular Source Knowledge https://pubmed.ncbi.nlm.nih.gov/20167803/
[34] = target: Centromere-associated protein E (Homo sapiens) (UniProt Q02224); assay: Affinity Phenotypic Cellular interaction: (Cell-growth inhibition assays (growth inhibitory effect colon cancer cell line SNU-423)) EUB0000734a CENPE; conditions: Affinity Phenotypic Cellular Source Knowledge https://pubmed.ncbi.nlm.nih.gov/20167803/
[35] = target: Centromere-associated protein E (Homo sapiens) (UniProt Q02224); assay: Affinity Phenotypic Cellular interaction: (Cell-growth inhibition assays (growth inhibitory effect colon cancer cell line COLO-320DM)) EUB0000734a CENPE; conditions: Affinity Phenotypic Cellular Source Knowledge https://pubmed.ncbi.nlm.nih.gov/20167803/
[36] = target: Centromere-associated protein E (Homo sapiens) (UniProt Q02224); assay: Affinity Phenotypic Cellular interaction: (Cell-growth inhibition assays (growth inhibitory effect colon cancer cell line HEC-1-B)) EUB0000734a CENPE; conditions: Affinity Phenotypic Cellular Source Knowledge https://pubmed.ncbi.nlm.nih.gov/20167803/
[37] = target: Centromere-associated protein E (Homo sapiens) (UniProt Q02224); assay: Affinity Phenotypic Cellular interaction: (Cell-growth inhibition assays (growth inhibitory effect colon cancer cell line Y79)) EUB0000734a CENPE; conditions: Affinity Phenotypic Cellular Source Knowledge https://pubmed.ncbi.nlm.nih.gov/20167803/

CC(C)Oc1ccc(C(=O)N[C@H](CNC(=O)CN(C)C)Cc2ccc(-c3cn4cccc([C@H](C)O)c4n3)cc2)cc1Cl
GIC50 [1]: 28 nM | GIC50 [2]: 24 nM | GIC50 [3]: 33 nM | GIC50 [4]: 3.96 µM | GIC50 [5]: 100 nM | GIC50 [6]: 88 nM | GIC50 [7]: 45 nM | GIC50 [8]: 26 nM | GIC50 [9]: 54 nM | GIC50 [10]: 55 nM | GIC50 [11]: 25 nM | GIC50 [12]: 61 nM | GIC50 [13]: 30 nM | GIC50 [14]: 31 nM | GIC50 [15]: 25 nM | GIC50 [16]: 32 nM | GIC50 [17]: 33 nM | GIC50 [18]: 26 nM | GIC50 [19]: 35 nM | GIC50 [20]: 127 nM | GIC50 [21]: 30 nM | GIC50 [22]: 35 nM | GIC50 [23]: 29 nM | GIC50 [24]: 35 nM | GIC50 [25]: 32 nM | GIC50 [26]: 26 nM | GIC50 [27]: 33 nM | GIC50 [28]: 41 nM | GIC50 [29]: 34 nM | GIC50 [30]: 76 nM | GIC50 [31]: 22 nM | GIC50 [32]: 31 nM | GIC50 [33]: 45 nM | GIC50 [34]: 34 nM | GIC50 [35]: 306 nM | GIC50 [36]: 28 nM | GIC50 [37]: 70 nM
